Reference: PMC9865396, “The Effect of the Particle Size Reduction on the Biorelevant Solubility and Dissolution of Poorly Soluble Drugs with Different Acid-Base Character” (Pharmaceutics, 2023)
Counter-ions that a name gives are not always drawn.

What was measured:
[1] = equilibrium solubility by the saturation shake-flask (SSF) method in FaSSIF/FeSSIF blank and full media; settings: blank buffers, 37 °C
Protocol: The equilibrium solubility of the samples was determined by the SSF method. The concentrations for the blank buffers were available at the manufacturer. FaSSIF full and FeSSIF full buffers were prepared from instant SIF powder added to the blank buffers and could be used for 48 h. For FaSSIF, a full 0.224 g of SIF powder was dissolved in 100 mL of blank phosphate buffer (pH = 6.5). After 2 h, a slightly opalesque solution was formed and it meant that it was ready for the measurement. For FeSSIF, a full 1.12 g of SIF powder was dissolved in 100 mL of blank acetate buffer (pH = 5.0) and was ready to use. The samples were added in excess to the aqueous buffer solutions to produce a suspension. To measure the original samples and the micronized forms in the presence of the excipients, the same 1 to 1 mass ratio was used as in the case of nanonized samples: a physical mixture was prepared from the API and the PVA or PVPK-25.
The prepared suspensions were vigorously stirred for 6 h at a controlled 37.0 ± 0.1 °C temperature followed by a sedimentation period of 18 h. […] The concentration of the saturated solutions was determined by UV spectroscopy using a Jasco V-550 UV/VIS spectrophotometer. The aliquots taken out from solubility experiments were diluted if necessary with the buffer used for the given solubility measurement, and the absorbance was measured at the λmax. […]

[2] = particle size distribution by laser diffractometry (Mastersizer 2000); assay type: physicochemical
Protocol: For Laser Diffractometry, 0.1 mL of milled suspensions were dispersed in 100 mL of demineralized water at a mixing speed of 1500 rpm with Mastersizer Hydro 2000 SM small volume dispersion unit. The particle size of the samples was measured at 25 ± 1 °C using a Mastersizer 2000 (Malvern Instruments Ltd., Malvern, UK). Laser diffraction measures the angular distribution of light scattered by the diluted sample and detects particles from 0.1 to 3000 μm. General purpose measurement with enhanced sensitivity mode was utilized, which was also useful for sample characterizations containing irregularly shaped particles. Every sample was measured three times individually, and the mean values were reported to track the changing of the particle size and span values (width of particle size distributions).

[3] = pKa and ionization state (species distribution) at the pH of the media; assay type: physicochemical
[4] = ampholyte; cited from earlier work
[5] = original and micronized compounds before solubility measurement, upper size limit for 10% of particles
[6] = original and micronized compounds before solubility measurement, upper size limit for 50% of particles
[7] = original and micronized compounds before solubility measurement, upper size limit for 90% of particles
[8] = solid phase at end of solubility measurement, pH = 5.0
[9] = solid phase at end of solubility measurement, pH = 6.5
[10] = pH = 5.0, calculated from protonation microconstants

Row | solubility in pH = 5.0 medium compared with pH = 6.5 medium [1] | d = 0.1 [2, 5] | d = 0.5 [2, 6] | d = 0.9 [2, 7] | d = 0.1 [2, 8] | d = 0.5 [2, 8] | d = 0.9 [2, 8] | d = 0.1 [2, 9] | d = 0.5 [2, 9] | d = 0.9 [2, 9] | anionic form [3, 10] | neutral form [3, 10] | zwitterionic form [3, 10] | anionic form ([3]; pH = 6.5, calculated from protonation microconstants) | H2A (non-ionized form) ([3]; pH = 5.0) | HA− (monoanionic form) ([3]; pH = 5.0) | SMILES | pKa1 [4] | pKa2 [4] | molecules protonated ([3]; pH = 5.0) | molecule in deprotonated state ([3]; pH = 6.5)
1 | approximately ten times lower | 71.45 µm | 183.25 µm | 579.83 µm | 56.21 µm | 151.25 µm | 488.95 µm | 19.07 µm | 58.55 µm | 128.24 µm | 78.2% | 1.2% | 20.6% | 99.1% |  |  | O=C(O)c1cccnc1Nc1cccc(C(F)(F)F)c1 [NIF original, Niflumic acid] | 2.26 | 4.44 |  | 
2 |  | 7.36 µm | 62.46 µm | 294.13 µm | 16.24 µm | 51.23 µm | 110.56 µm | 4.72 µm | 14.63 µm | 35.04 µm |  |  |  |  | 3.3% | 96.7% | NS(=O)(=O)c1cc(C(=O)O)c(NCc2ccco2)cc1Cl [FUR original, furosemide] |  |  |  | 

Row | SMILES | solubility in pH = 5.0 medium compared with pH = 6.5 medium [1] | d = 0.1 [2, 5] | d = 0.5 [2, 6] | d = 0.9 [2, 7] | d = 0.1 [2, 8] | d = 0.5 [2, 8] | d = 0.9 [2, 8] | d = 0.1 [2, 9] | d = 0.5 [2, 9] | d = 0.9 [2, 9] | anionic form [3, 10] | neutral form [3, 10] | zwitterionic form [3, 10] | anionic form ([3]; pH = 6.5, calculated from protonation microconstants) | H2A (non-ionized form) ([3]; pH = 5.0) | HA− (monoanionic form) ([3]; pH = 5.0) | pKa1 [4] | pKa2 [4] | molecules protonated ([3]; pH = 5.0) | molecule in deprotonated state ([3]; pH = 6.5)
3 | COc1ccc(Cc2nccc3cc(OC)c(OC)cc23)cc1OC [PAP original, papaverine hydrochloride] |  | 153.97 µm | 488.62 µm | 887.93 µm | 4.60 µm | 49.42 µm | 189.96 µm | 7.96 µm | 33.39 µm | 98.40 µm |  |  |  |  |  |  |  |  | 95.8% | approximately 50%
